Results from patent US10344037B2, “Use of the FL-one hundred eighteen core chemical structure platform to generate FL-one hundred eighteen derivatives for treatment of human disease” (priority 2014, dated 2019).

How the values were obtained:
[1] = test system: DU145 prostate cancer cells; assay: Cell growth inhibition, cell counting after 72 h; assay type: cell-based, human
Text: Each dot is the mean±SD derived from 3 independent assays.
Irinotecan and topotecan are the only two analogs derived from direct modification of camptothecin (CPT) that are approved by the FDA for cancer treatment in clinical practice. […] In this regard, we obtain one DU145 parental prostate cancer cell line and two DU145-derived sub-lines with Top1 mutations (DU145-RC0.1, DU145-RC1).

[2] = Pharmacokinetics after IV injection in tumor-bearing SCID mice; assay type: in vivo
Method: Then, blood and tumor tissues were collected at 10 min, 1 h, 4 h, 12 h, 24, and 48 h. Three SCID mice at each time point were used. Standard deviation (SD) was analyzed using Excel software.
A 800 μl aliquot of ice cold acidified methanol is added to 200 μl plasma and vortexed for 15 sec. […] A 800 μl aliquot of ice cold acidified methanol is added to 200 μl homogenized tissue and then vortexed for 1 min. The samples are then centrifuged at 13,000 rpm for 5 min. and the supernatant is transferred to a clean 13×100 mm glass tube. Samples are dried under vacuum and stored at −20° C. until analysis. Dried samples were then reconstituted in 200 μl of mobile phase (80% 3% TEA and 20% acetonitrile pH 5.5) and 15 μl is injected. Analysis is carried out using an Acquity UPLC system with Fluorescence detection interfaced with Empower software. Separation is carried out on a Acquity BEH Shield RP18 1.7 μm, 2.1 mm×100 mm column (Waters). […] CPT-11 is used as the internal standard (IS); a 10 μl aliquot of a 1.3 μg/ml solution is added to each 200 μl sample. The fluorescence detector is set at the following Excitation (Ex) and Emissions (Em) wavelengths: Ex 370 nm Em 510 nm. […] To ensure quality assurance, quality control samples are prepared in plasma at 25 and 250 ng/ml aliquoted and stored at −20° C. The QC's are injected in duplicate at the beginning and end of the assay. […] Validation consists of running twelve standard curves over the course of 5 days. QC samples are analyzed with each curve.

HCT116-A2 cells = assay: cells; assay type: cell-based, human
Method: Cancer cell viability and growth are determined by MTT assay. […] MTT is used as a colorimetric substrate for measuring cell viability and growth. When cell growth is inhibited, there is an alteration of cellular redox activity, and thus rendering cells unable to reduce the MTT dye. Cells are seeded in 96 well plates overnight and then treated with or without a compound/drug in the presence or absence of an protein molecule inhibitor (e.g. ABCG2 inhibitor ko143) for 48-72 hours, MTT is added to a final concentration 0.5 mg/ml. Cells are continuously incubated in a 5% CO2 incubator at 37° C. for 4 h with MTT and then lysed with a cell lysis buffer (20% SDS, 50% N,N-dimethylformamide, pH 4.7), 100 μl per well, for 4 h in the incubator. Subsequently, cell absorbance in each well is measured at 570 nm with an Ultra Microplate Reader (Bio-Tek Instruments). Results are reported as the mean±SD from 3-5 independent assays at each point. […] After 72 hours, media is removed and cells are harvested using 0.5 ml of 0.25% Trypsin-EDTA. Cells are counted and viability is analyzed on a Vi-CELL XR Cell Viability Analyzer (Beckman Coulter).

p53 = assay: Western blot for p53 expression in colon cancer cells with wild type p53; assay type: cell-based, human
Method: Actin is an internal control for total protein loading.
(§1) After the lysates are cleared by centrifugation at 15,000 g for 20 minutes at 4° C., the total protein is determined using Bio-Rad protein assay solution. Up to 50 μg of total protein is denatured in 2×SDS sample loading buffer for 5 minutes at 95° C., separated on 10-15% SDS-PAGE gels, and electrotransferred to the Pure Nitrocellulose Membrane (Bio-Rad, Hercules, Calif.) using semi-dry electrophoretic transfer. After the nonspecific binding sites on the membranes are blocked with 5% skim milk in TBS-T (20 mM Tris-HCl pH 7.5, 0.137 M NaCl, and 0.01% Tween 20) for 3 hours at room temperature with constant shaking, the membranes are incubated in TBS-T containing the relevant primary antibody (1: 500-1000) and 5% BSA overnight at 4° C. After washing with TB S-T three times, the membrane is incubated in 5% skim milk in TBS-T buffer containing the appropriate secondary anti-IgG antibody (1:5000) at room temperature for 1 h with constant shaking. The protein of interest is detected using Western Lightning®-ECL (Perkin Elmer, Waltham, Mass.) and visualized by exposure for various times (5-60 seconds). […]

[3] = test system: SW620 and HCT-8 colon cancer cells; assay: MTT assay with ABC transporter inhibitors; assay type: cell-based, human; conditions: sildenafil 50 μM, 3 days
Method: Subconfluent SW620, HCT-8, and HCT-116 cells were lysed and analyzed for the expression of MDR1 and ABCG2 using western blots (WB). Actin is the internal control. […] Cell growth/viability was then analyzed by MTT assays. Each time point in the individual curve is the mean±SD from 3 to 5 independent assays. […] Drugs were then washed out and cells were allowed to grow in new medium without drugs for 2 weeks. Cell colonies were stained with crystal violet solution; images were digitally taken. Triplicate results are shown.

[4] = Cardiac measurements by ultrasound; assay type: in vivo, SCID mice; conditions: IV 0.75 mg/kg (½MTD), q2d×4
Method: Cardiac imaging is performed using a 55 MHz ultrasound transducer system. Calculations are made based on the Simpson's method. Three short axis images and one long axis image of the left ventricle are acquired and used to determine cardiac output, ejection fraction, and stroke volume. […] Measurements are made with a 55 MHz ultrasound probe. Step (a): cardiac output is a measurement of the total volume of blood pumped by the left ventricle per minute. Step (b) ejection fraction measures the percentage of blood that leaves the left ventricle every time it contracts. Step (c) stroke volume measures the volume of blood pumped from the left ventricle with each contraction.
On the other hand, we have analyzed a comprehensive panel of chemical parameters to determine the potential chemical toxicity including renal and liver toxicity using blood samples from vehicle-treated SCID mice and FL118-treated mice. The analyzed parameters include glucose (GLU), blood urea nitrogen (BUN), creatinine (CREA), inorganic phosphate (PHOS), calcium (CA), total protein (TP), albumin (ALB), alanine aminotransferase (ALT), alkaline phosphatase (ALKP), Gamma-glutamyl transferase (GGT), total bilirubin (TBIL), cholesterol (CHOL), and amylase (AMYL), lipase (LIPA).

[5] = Lactone ring stability in formulated solution by mass spectrometry; assay type: physicochemical; conditions: formulated solution on shelf for 30 days at room temperature
Method: Mass spectrometry (MS) parameters are used as follows. Bruker Esquire, ion trap; Infusion Flow Rate, 5 μl/min; Ion Polarity, Positive; Ion Source Type, ESI; Dry Temp, 300 deg C.; Nebulizer, 8.00 psi; Dry Gas, 7.00 Umin; HV Capillary, 4000 V; HV End Plate, −500 V; Scan Begin, 100.00 m/z; Average, 30; Max Acc Time, 400 us; and ICC Target, 50000. MS scan is in both negative ion mode and positive ion mode.

[6] = test system: human EU-4 acute lymphocytic leukemia; assay: EU-4 acute lymphocytic leukemia (ALL) mouse model; assay type: in vivo, SCID mice; conditions: IV, q2×5
Text: The EU-4 cells are intraperitoneally injected (5×10^6 per SCID mouse). […] Body weight changes, belly enlargement and overall mouse survival status are documented every 2-3 days throughout the experiment period.
Of note, “died with ascites” means mice at a moribund/dying state and then being euthanized. This is because moribund mice need to be euthanized based on the animal protocol rule.

[7] = test system: colorectal cancer PDX (11124, 14528); assay: Colorectal cancer patient-derived xenografts (PDX); parameters: species or system SCID mice; conditions: mouse, in vivo
Text: Individual PDX were subcutaneously inoculated into SCID mice. […] Individual PDX tumor curves derived from individual mice are shown. […] Two examples of colorectal cancer PDX (11124, 14528) are shown.

PARP cleavage = conditions: p53 null versus p53 wild type HCT116
Method: Actin is used as internal controls for total protein loading.
as §1

Hdm2/HdmX complex = Hdm2/HdmX complex (Homo sapiens, UniProt O15151+Q00987); assay: In vitro ubiquitination assay with recombinant proteins
Method: The ubiquitinated p53 (Ub-p53) bands are detected as shown.
The reaction products are resolved by SDS-PAGE followed by immunoblotting with p53 antibody DO-1. For HdmX ubiquitination in vitro, reactions are performed in a 50-μl volume. After completion of the reactions, 10 μl is used for direct immunoblotting to reveal HdmX ubiquitination (a smearing pattern) with FLAG antibody. 40 μl reactions are used for denaturing with 1% SDS followed by dilution with 800 μl of 20 mM Tris, pH7.5, 0.5% NP40, and 120 mM NaCl. The processed reaction products are used for immunoprecipitation with ubiquitin antibody followed by immunoblotting for FLAG-HdmX using anti-FLAG antibodies.

[8] = test system: IAP and Bcl-2 family genes; assay: Affymetrix Human Gene 1.0 ST Array of FL118-treated PC3 cells; conditions: DNA microarray

Hdm2/HdmX complex, sequence (Q00987 whole entry): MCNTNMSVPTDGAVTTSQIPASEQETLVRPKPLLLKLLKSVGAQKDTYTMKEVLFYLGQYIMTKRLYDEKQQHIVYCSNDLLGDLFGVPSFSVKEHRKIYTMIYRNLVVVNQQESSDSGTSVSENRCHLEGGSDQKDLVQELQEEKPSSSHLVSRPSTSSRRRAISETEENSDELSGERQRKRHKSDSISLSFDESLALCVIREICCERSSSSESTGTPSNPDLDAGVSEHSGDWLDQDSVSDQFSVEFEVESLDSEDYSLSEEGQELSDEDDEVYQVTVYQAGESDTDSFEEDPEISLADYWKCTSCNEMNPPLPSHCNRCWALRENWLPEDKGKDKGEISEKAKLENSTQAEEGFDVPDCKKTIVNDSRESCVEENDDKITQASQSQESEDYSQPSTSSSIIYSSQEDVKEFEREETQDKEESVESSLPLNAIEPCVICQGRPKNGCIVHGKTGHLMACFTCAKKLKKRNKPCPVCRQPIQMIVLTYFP
Hdm2/HdmX complex, sequence (O15151 whole entry): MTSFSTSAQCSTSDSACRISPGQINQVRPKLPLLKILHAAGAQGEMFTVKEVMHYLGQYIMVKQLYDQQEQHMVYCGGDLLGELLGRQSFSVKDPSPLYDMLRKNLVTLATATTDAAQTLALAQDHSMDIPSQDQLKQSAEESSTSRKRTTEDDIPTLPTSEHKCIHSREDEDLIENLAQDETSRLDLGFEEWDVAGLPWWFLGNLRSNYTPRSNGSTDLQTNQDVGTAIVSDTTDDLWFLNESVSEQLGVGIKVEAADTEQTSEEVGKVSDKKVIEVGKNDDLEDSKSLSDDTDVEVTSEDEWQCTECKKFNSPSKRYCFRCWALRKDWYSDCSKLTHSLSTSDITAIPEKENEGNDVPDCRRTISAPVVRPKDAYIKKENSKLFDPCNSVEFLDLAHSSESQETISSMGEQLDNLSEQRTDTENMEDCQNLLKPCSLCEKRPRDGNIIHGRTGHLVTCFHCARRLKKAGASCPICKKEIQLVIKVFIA

Q: Which IC50 ([1]; DU-145) does the source give for `CC[C@@]1(O)C(=O)OCc2c1cc1n(c2=O)Cc2cc3cc4c(cc3nc2-1)OCO4` [FL118] here?
A: The IC50 was 4.56 nM.

Q: What about the “more effective than CPT, SN-38 and topotecan to inhibit cancer cell growth” value ([1]; parental Du145 cell line) of the same compound?
A: The value was 10-40 fold.

Q: What about the T1/2 ([2]; FaDu tumor, iv 1.5 mg/kg) of the same compound?
A: The T1/2 was 411.1 min.

Q: What about the Tmax ([2]; FaDu tumor, iv 1.5 mg/kg) of the same compound?
A: Its Tmax is 10 min.

Q: And the Vz ([2]; FaDu tumor, iv 1.5 mg/kg)?
A: Its Vz is 33052 g/kg.

Q: What about the T1/2 ([2]; SW620 tumor, iv 1.5 mg/kg) of the same compound?
A: The T1/2 was 765 min.

Q: And the Tmax ([2]; SW620 tumor, iv 1.5 mg/kg)?
A: Its Tmax is 10 min.

Q: And the Vz ([2]; SW620 tumor, iv 1.5 mg/kg)?
A: The Vz was 30742 g/kg.

Q: What about the “time FL118 is maintained in tumor” value ([2]; intravenous injection) of the same compound?
A: Its value is “over 48 hours”.

Q: What about the “time to clearance from blood” value ([2]; intravenous injection) of the same compound?
A: Its value is ≤ 12 h.

Q: And the Cl ([2]; mouse plasma, iv 1.5 mg/kg)?
A: The Cl was 238.12 mL/min/kg.

Q: And the Cmax ([2]; mouse plasma, iv 1.5 mg/kg)?
A: The Cmax was 43 ng/mL.

Q: What about the T1/2 ([2]; mouse plasma, iv 1.5 mg/kg) of the same compound?
A: Its T1/2 is 107.3 min.

Q: What about the Tmax ([2]; mouse plasma, iv 1.5 mg/kg) of the same compound?
A: The Tmax was 10 min.

Q: What about the Vz ([2]; mouse plasma, iv 1.5 mg/kg) of the same compound?
A: Its Vz is 36.849 L/kg.

Q: And the IC50 (HCT116-A2 cells)?
A: The IC50 was 0.163 nM.

Q: What about the RP (HCT116-A2 cells; IC50 of topotecan divided by IC50 of the drug) of the same compound?
A: The RP was 666.5.

Q: And the p53 protein expression (p53)?
A: Its p53 protein expression is “strong and rapid induction of p53 expression”.

Q: And the “sensitization by multi-efflux pump inhibitor sildenafil” value [3]?
A: The value was “sildenafil does not sensitize FL118”.

Q: And the “cardiac output, ejection fraction and stroke volume” value [4]?
A: Its value is “no difference between vehicle control and FL118-treated SCID mice”.

Q: And the “lactone versus carboxylate form in solution” value [5]?
A: Its value is “fully in lactone form”.

Q: What about the “ascites production and animal survival” value [6] of the same compound?
A: The value was “effectively inhibits ascites production and extends animal survival”.

Q: And the “antitumor activity on the same PDX on different mice” value [7]?
A: Its value is “very similar antitumor activity to the same tumor on different SCID mice”.

Q: What about the PARP cleavage (PARP cleavage) of the same compound?
A: The PARP cleavage was “more effective to induce PARP cleavage in p53 null HCT116 colon cancer cells than in p53 wild type HCT116 cells”.

Q: And the “Hdm2-mediated HdmX ubiquitination in vitro” value (Hdm2/HdmX complex)?
A: Its value is “stimulates Hdm2-mediated HdmX ubiquitination in a concentration-dependent manner”.

Q: What about the “Mdm2-MdmX mediated p53 polyubiquitination in vitro” value (Hdm2/HdmX complex) of the same compound?
A: The value was “moderately inhibits”.

Q: And the “expression of Bcl-2 family antiapoptotic genes” value [8]?
A: Its value is “slightly decreases Mcl-1 and Bcl-XL, and shows no effect on Bcl-2, Bcl2A1, Bcl-w, Bcl-B, Bcl2L12, Bcl2L13, Bcl-G and Bcl2L15”.

Q: And the “expression of IAP family genes” value [8]?
A: Its value is “decreases (2 fold cutoff) NAIP, cIAP2, XIAP and Bruce, and shows no effects on cIAP1, Livin and hILP2”.

Q: And the “expression of proapoptotic proteins” value [8]?
A: Its value is “increases proapoptotic proteins Bax, Bad, Bim, Hrk, and Bmf without affecting the expression of Bid, Bik, Bak and Bok”.
